The values that follow come from patent US8598204B2, “1,2-dihydro-2-oxoquinoline compounds as 5-HT4 receptor ligands” (Suven Life Sciences Limited, priority 2009, dated 2013).

Structures can show the parent of a compound that is named as a salt.

The target of one experiment is T1, recombinant human 5-HT4 receptor (Homo sapiens, UniProt Q13639).
T1 construct: expressed in transfected cells
T1 sequence (Q13639 whole entry): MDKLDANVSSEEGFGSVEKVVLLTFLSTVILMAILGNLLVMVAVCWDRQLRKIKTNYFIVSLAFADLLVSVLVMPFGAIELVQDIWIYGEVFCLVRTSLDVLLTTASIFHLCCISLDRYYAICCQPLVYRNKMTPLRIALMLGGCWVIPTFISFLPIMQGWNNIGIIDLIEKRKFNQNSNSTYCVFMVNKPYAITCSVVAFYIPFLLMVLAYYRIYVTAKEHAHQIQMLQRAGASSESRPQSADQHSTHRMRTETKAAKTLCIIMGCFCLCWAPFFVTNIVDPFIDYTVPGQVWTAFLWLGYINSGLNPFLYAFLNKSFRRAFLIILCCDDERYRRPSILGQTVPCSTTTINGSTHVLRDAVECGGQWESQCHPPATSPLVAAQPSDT
The experiment can be described thus: Determination of EC50 values for 5-HT4 receptor (CRE-luciferase reporter, CHO cells). It is filed as cell-based. To be noted: stable CHO cell line expressing recombinant human 5-HT4 receptor and pCRE-Luc reporter; 4 hours incubation; luciferase activity. As to the method: A stable CHO cell line expressing recombinant human 5-HT4 receptor and pCRE-Luc reporter system was used for cell-based assay. The assay offers a non-radioactive based approach to determine binding of a compound to GPCRs. In this specific assay, the level of intracellular cyclic AMP which is modulated by activation or inhibition of the receptor is measured. The recombinant cells harbor luciferase reporter gene under the control of cAMP response element.
The above cells were grown in 96 well clear bottom white plates in Hams F12 medium containing 10% fetal bovine serum (FBS). Prior to the addition of compounds or standard agonist, cells were serum starved overnight. Increasing concentrations of test compounds were added in OptiMEM medium to the cells. The incubation was continued at 37° C. in CO2 incubator for 4 hours. Medium was removed and cells were washed with phosphate buffered saline. The cells were lysed and luciferase activity was measured in a Luminometer. Luminescence units were plotted against the compound concentrations using Graphpad software. EC50 values of the compounds were defined as the concentration required in stimulating the luciferase activity by 50%.
Turning to `CC(C)Cn1c(=O)c(C(=O)NCCCN2C3CC4CC(C3)CC2C4)c(O)c2ccccc21` [Example 2, N-[(2-Azatricyclo[3.3.1.1^3,7]dec-2-yl)propyl]-4-hydroxy-1-isobutyl-2-oxo-1,2-dihydroquinoline-3-carboxamide hydrochloride], the 50% effective concentration (EC50) was 4.02 µM.

As to `CC(C)n1c(=O)c(C(=O)NC2CCN(C3C4CC5CC(C4)CC3C5)C2)c(O)c2ccccc21` (stereo not drawn) [Example 3, N-[1-(Tricyclo[3.3.1.1^3,7]dec-2-yl)pyrrolidin-3-yl]-4-hydroxy-1-isopropyl-2-oxo-1,2-dihydroquinoline-3-carboxamide], the half-maximal effective concentration (EC50) was 1.11 µM.

Take `CC(C)n1c(=O)c(C(=O)NCCCN2C3CC4CC2CC(c2ccccc2)(C4)C3)c(O)c2ccccc21` [Example 5, N-[(5-Phenyl-2-azatricyclo[3.3.1.1^3,7]dec-2-yl)propyl]-4-hydroxy-1-isopropyl-2-oxo-1,2-dihydroquinoline-3-carboxamide hydrochloride]: the EC50 came to 1.6 µM.

With `CC(C)n1c(=O)c(C(=O)NCCCN2CC3CC4CC2CN(C4)C3)c(O)c2ccccc21` (stereo not drawn) [Example 6, N-[(1,4-Diazatricyclo[4.3.1.1^3,8]undec-4-yl)propyl]-4-hydroxy-1-isopropyl-2-oxo-1,2-dihydro-quinoline-3-carboxamide], the EC50 worked out at 0.667 µM.

For the compound `CC(C)n1c(=O)c(C(=O)NCCCN2C3CC4CC(C3)CC2C4)c(O)c2cc(Cl)ccc21` [Example 8, N-[(2-Azatricyclo[3.3.1.1^3,7]dec-2-yl)propyl]-6-chloro-4-hydroxy-1-isopropyl-2-oxo-1,2-dihydroquinoline-3-carboxamide], the EC50 was 3.08 µM.

Consider `CC(C)n1c(=O)c(C(=O)NCCCN2C3CC4CC(C3)CC2C4)c(O)c2cc(F)ccc21` [Example 9, N-[(2-Azatricyclo[3.3.1.1^3,7]dec-2-yl)propyl]-6-fluoro-4-hydroxy-1-isopropyl-2-oxo-1,2-dihydroquinoline-3-carboxamide], for which the EC50 was 0.935 µM.

Take `CC(C)n1c(=O)c(C(=O)NCCCN2C3CC4CC(C3)CC2C4)c(O)c2cc(Br)ccc21` [Example 10, N-[(2-Azatricyclo[3.3.1.1^3,7]dec-2-yl)propyl]-6-bromo-4-hydroxy-1-isopropyl-2-oxo-1,2-dihydroquinoline-3-carboxamide]: the concentration for a half-maximal effect (EC50) was found to be 2.8 µM.

For the compound `CC(C)n1c(=O)c(C(=O)NCCCN2C3CC4CC(C3)CC2C4)c(O)c2cc(N)ccc21` [Example 11, N-[(2-Azatricyclo[3.3.1.1^3,7]dec-2-yl)propyl]-6-amino-4-hydroxy-1-isopropyl-2-oxo-1,2-dihydroquinoline-3-carboxamide], the concentration for a half-maximal effect (EC50) turned out to be 3 µM.

In the case of `CC(C)n1c(=O)c(C(=O)NC2C3CCN(CC3)C2Cc2cccnc2)c(O)c2ccccc21` (stereo not drawn) [Example 12, N-[2-(Pyridin-3-ylmethyl)-1-azabicyclo[2.2.2]oct-3-yl]-4-hydroxy-1-isopropyl-2-oxo-1,2-dihydroquinoline-3-carboxamide], the EC50 was 0.972 µM.

With `CC(C)n1c(=O)c(C(=O)NC2C3CCN(CC3)C2Cc2ccccn2)c(O)c2ccccc21` (stereo not drawn) [Example 13, N-[2-(Pyridin-2-ylmethyl)-1-azabicyclo[2.2.2]oct-3-yl]-4-hydroxy-1-isopropyl-2-oxo-1,2-dihydroquinoline-3-carboxamide], the EC50 was determined as 0.462 µM.

With `CC(C)N1C2CC3CC1CC(NC(=O)c1c(O)c4ccccc4n(C(C)C)c1=O)(C3)C2` [Example 15, N-(2-Isopropyl-2-azatricyclo[3.3.1.1^3,7]dec-5-yl)-4-hydroxy-1-isopropyl-2-oxo-1,2-dihydro-quinoline-3-carboxamide], the EC50 was 2.73 µM.

As to `CC(C)n1c(=O)c(C(=O)NC2C3CCN(CC3)C2Cc2ccccc2)c(O)c2ccccc21` (stereo not drawn) [Example 16, N-(2-Benzyl-1-azabicyclo[2.2.2]oct-3-yl)-4-hydroxy-1-isopropyl-2-oxo-1,2-dihydroquinoline-3-carboxamide], the EC50 was determined as 3.92 µM.

In the case of `CC(C)n1c(=O)c(C(=O)NCCN2C3CC4CC(C3)CC2C4)c(O)c2ccccc21` [Example 17, N-[(2-Azatricyclo[3.3.1.1^3,7]dec-2-yl)ethyl]-4-hydroxy-1-isopropyl-2-oxo-1,2-dihydroquinoline-3-carboxamide hydrochloride], the EC50 stood at 1.15 µM.

For the compound `CCCCN1C2CC3CC1CC(NC(=O)c1c(O)c4ccccc4n(C(C)C)c1=O)(C3)C2` [Example 18, N-(2-Butyl-2-azatricyclo[3.3.1.1^3,7]dec-5-yl)-4-hydroxy-1-isopropyl-2-oxo-1,2-dihydroquinoline-3-carboxamide hydrochloride], the EC50 stood at 0.958 µM.

Consider `CCN1C2CC3CC1CC(CNC(=O)c1c(O)c4ccccc4n(C(C)C)c1=O)(C3)C2.Cl` [Example 19, N-(2-Ethyl-2-azatricyclo[3.3.1.1^3,7]dec-5-ylmethyl)-4-hydroxy-1-isopropyl-2-oxo-1,2-dihydroquinoline-3-carboxamide hydrochloride], for which the EC50 is 0.645 µM.

For `CCCCN1CCC(NC(=O)c2c(O)c3ccccc3n(C(C)C)c2=O)CC1` [Example 20, N-(1-Butylpiperidin-4-yl)-4-hydroxy-1-isopropyl-2-oxo-1,2-dihydroquinoline-3-carboxamide hydrochloride], the 50% effective concentration (EC50) is 0.077 µM.

`CC(C)n1c(=O)c(C(=O)NC23CC4CC2CC(N2CCCC2)(C4)C3)c(O)c2ccccc21` (stereo not drawn) [Example 21]: the EC50 worked out at 0.476 µM.

With “N-[(2-Azatricyclo[3.3.1.1^3,7]dec-2-yl) propyl]-4-hydroxy-1-isobutyl-6-methoxy-2-oxo-1,2-dihydroquinoline-3-carboxamide [Example 7]”, the EC50 worked out at 1 µM.

In the next experiment the test system is novel object recognition (cognition) in rats. The experiment is described as follows: Object recognition task model. It is filed as in vivo, rat. To be noted: 1 mg/kg p.o. As to the method:
The cognition-enhancing properties of compounds of this invention were estimated using a model of animal cognition: the object recognition task model.
Male Wister rats (230-280 grams) obtained from N. I. N. (National Institute of Nutrition, Hyderabad, India) was used as experimental animals. Four animals were housed in each cage. Animals were kept on 20% food deprivation before one day and given water ad libitum throughout the experiment and maintained on a 12 hours light/dark cycle. Also the rats were habituated to individual arenas for 1 hour in the absence of any objects.
One group of 12 rats received vehicle (1 mL/Kg) orally and another set of animals received compound of the formula (I) either orally or i.p., before one hour of the familiar (T1) and choice trial (T2).
The experiment was carried out in a 50×50×50 cm open field made up of acrylic. In the familiarization phase (T1), the rats were placed individually in the open field for 3 minutes, in which two identical objects (plastic bottles, 12.5 cm height×5.5 cm diameter) covered in yellow masking tape alone (a1 and a2) were positioned in two adjacent corners, 10 cm. from the walls. After 24 hours of the (T1) trial for long-term memory test, the same rats were placed in the same arena as they were placed in (T1) trial. Choice phase (T2) rats were allowed to explore the open field for 3 minutes in presence of one familiar object (a3) and one novel object (b) (Amber color glass bottle, 12 cm high and 5 cm in diameter). Familiar objects presented similar textures, colors and sizes. During the T1 and T2 trial, explorations of each object (defined as sniffing, licking, chewing or having moving vibrissae whilst directing the nose towards the object at a distance of less than 1 cm) were recorded separately by stopwatch. Sitting on an object was not regarded as exploratory activity, however, it was rarely observed.
T1 is the total time spent exploring the familiar objects (a 1+a2).
T2 is the total time spent exploring the familiar object and novel object (a3+b).
The object recognition test was performed as described by Ennaceur, A., Delacour, J., 1988, A new one-trial test for neurobiological studies of memory in rats—Behavioural data, Behav. Brain Res., 31, 47-59.
For `CCN1C2CC3CC1CC(CNC(=O)c1c(O)c4ccccc4n(C(C)C)c1=O)(C3)C2.Cl` [Example 19, N-(2-Ethyl-2-azatricyclo[3.3.1.1^3,7]dec-5-ylmethyl)-4-hydroxy-1-isopropyl-2-oxo-1,2-dihydroquinoline-3-carboxamide hydrochloride], the Inference entry was “Active”.

Staying with this experiment, now noted: 1 mg/kg p.o., choice trial T2 24 hours after T1.
For the compound `CCN1C2CC3CC1CC(CNC(=O)c1c(O)c4ccccc4n(C(C)C)c1=O)(C3)C2.Cl` [Example 19, N-(2-Ethyl-2-azatricyclo[3.3.1.1^3,7]dec-5-ylmethyl)-4-hydroxy-1-isopropyl-2-oxo-1,2-dihydroquinoline-3-carboxamide hydrochloride], the “Exploration time mean ± S.E.M, Familiar object” value was determined as 8.83 ± 1.54 s and the “Exploration time mean ± S.E.M, Novel object” value was found to be 14.09 ± 1.56 s.
